Measured values taken from patent publication US4021544A, “Complement inhibitors” (American Cyanamid Company, priority 1976, dated 1977).
Where “and” joins values, the source holds several entries; their conditions need not be identical. Identical values can stand only once. Counter-ions that a name gives are not always drawn.

Assays:
[1] = target: activated human C1 (Homo sapiens, UniProt P09871); assay: Test, Code 026 (C1 inhibitor); assay type: biochemical; conditions: for 026 Wells: Table I, serial two-fold dilution assay, higher well number indicates higher activity; for LOGARITHMIC DIFFERENCE EXPRESSED AS WELLS / INTRINSIC THERAPEUTICAL INDEX / COMPLEMENT INHIBITING ACTIVITY (WELLS) CODE 026: Table II; for LOGARITHMIC DIFFERENCE EXPRESSED AS WELLS: Code 026 wells minus AC wells (base 2); for INTRINSIC THERAPEUTICAL INDEX: antilogarithm (base 2) of difference between Code 026 wells and AC wells; for COMPLEMENT INHIBITING ACTIVITY (WELLS) CODE 026: highest active serial dilution
Text: (§1) An active inhibitor protects C2 from C1 and C4; (ii) Test, Code 035 (C3- C9 inhibitor) - This test determines the ability of the late components of human complement (C3-C9) to lyse EAC 142 in the presence of appropriate dilutions of the test compound. An active inhibitor protects EAC 142 from lysis by human C3-C9; (iii) Test, Code 036 (C-Shunt inhibitor) - In this test human erythrocytes rendered fragile are lysed in autologous serum via the shunt pathway activated by cobra venom factor in the presence of appropriate dilutions of the test compound. Inhibition of the shunt pathway results in failure of lysis; (iv) Forssman Vasculitis Test - Here, the well known complement dependent lesion, Forssman vasculitis, is produced in guinea pigs by intradermal injection of rabbit anti-forssman antiserum. The lesion is measured in terms of diameter, edema and hemorrhage and the extent to which a combined index of these is inhibited by prior intraperitoneal injection of the test compound at 200 mg/kg in then reported, unless otherwise stated; (v) Forssman Shock Test -- Lethal shock is produced in guinea pigs by an i.v. injection of anti-Forssman antiserum and the harmonic mean death time of treated guinea pigs is compared with that of simultaneous controls; (vi) Complement Level Reduction Test -- In this test, the above dosed guinea pigs, or others, are bled for serum and the complement level is determined in undiluted serum by the capillary tube method of U.S. Pat. No. 3,876,376 and compared to undosed control guinea pigs; and (vii) Cap 50 Test -- Here, appropriate amounts of the test compound are added to a pool of guinea pig serum in vitro, after which the undiluted serum capillary tube assay referred to above is run. The concentration of compound inhibiting 50% is reported.

[2] = system: late components of human complement (C3-C9); assay: Test, Code 035 (C3-C9 inhibitor); assay type: biochemical; conditions: Table I; lysis of EAC 142; serial two-fold dilution assay, higher well number indicates higher activity
Text: as §1

[3] = system: shunt pathway activated by cobra venom factor; assay: Test, Code 036 (C-Shunt inhibitor); assay type: cell-based; conditions: Table I, lysis of fragile human erythrocytes in autologous serum, serial two-fold dilution assay, higher well number indicates higher activity
Text: as §1

[4] = system: Citrated sheep plasma; assay: In vitro anti-coagulant activity (AC) test; conditions: for A.C. Wells: Table I, clot inhibition, recalcified citrated sheep plasma, serial two-fold dilutions; for ANTI-COAGULANT ACTIVITY (WELLS) AC: Table II, highest active serial dilution
Method: The sheep RBC'S, kept in suspension throughout the clotting incubation time, become enmeshed in the fibrin matrix if a clot forms. Upon centrifugation of the plate untrapped RBC's form buttons, the sizes of which correspond to the degree of clot inhibition; this providing a measure of anti-coagulant activity (AC).

Molecule	026 Wells [1]	LOGARITHMIC DIFFERENCE EXPRESSED AS WELLS [1]	INTRINSIC THERAPEUTICAL INDEX [1]	COMPLEMENT INHIBITING ACTIVITY (WELLS) CODE 026 [1]	035 Wells [2]	036 Wells [3]	A.C. Wells [4]	ANTI-COAGULANT ACTIVITY (WELLS) AC [4]	COMPLEMENT INHIBITING ACTIVITY (WELLS) CODE 026 ([1]; Sodium Salt)	A.C. Wells ([4]; Sodium Salt)	ANTI-COAGULANT ACTIVITY (WELLS) AC ([4]; Sodium Salt)	036 Wells ([3]; Sodium Salt)
Maltotriose Poly(H-)sulfate Sodium Salt	+9 Wells	+10 WELLS	1024	+9 WELLS	Neg.	Neg.	-1 Wells	-1 WELLS				
O=S(=O)(O)OC[C@H]1O[C@H](O[C@H]2[C@H](OS(=O)(=O)O)[C@@H](OS(=O)(=O)O)C(OS(=O)(=O)O)O[C@@H]2COS(=O)(=O)O)[C@H](OS(=O)(=O)O)[C@@H](OS(=O)(=O)O)[C@@H]1OS(=O)(=O)O (stereo partly drawn) [Maltose Poly(H--) sulfate sodium salt, Maltose Poly (H-)Sulfate Sodium Salt]									+12 WELLS	+2 Wells	+2 WELLS	
O=S(=O)(O)OC[C@H]1O[C@H](O[C@H]2[C@H](OS(=O)(=O)O)[C@@H](OS(=O)(=O)O)C(OS(=O)(=O)O)O[C@@H]2COS(=O)(=O)O)[C@H](OS(=O)(=O)O)[C@@H](OS(=O)(=O)O)[C@@H]1OS(=O)(=O)O (stereo partly drawn) [Maltose Poly(H-)Sulfate Trimethylamine Salt]		+10 WELLS	1024	+8 WELLS	Neg.	Neg.	-2 Wells	-2 WELLS				
O=S(=O)(O)OC[C@H]1O[C@H](O[C@H]2[C@H](OS(=O)(=O)O)[C@@H](OS(=O)(=O)O)[C@@H](O[C@H]3[C@H](OS(=O)(=O)O)[C@@H](OS(=O)(=O)O)[C@@H](O[C@H]4[C@H](OS(=O)(=O)O)[C@@H](OS(=O)(=O)O)C(OS(=O)(=O)O)O[C@@H]4COS(=O)(=O)O)O[C@@H]3COS(=O)(=O)O)O[C@@H]2COS(=O)(=O)O)[C@H](OS(=O)(=O)O)[C@@H](OS(=O)(=O)O)[C@@H]1O[C@H]1O[C@H](COS(=O)(=O)O)[C@@H](O[C@H]2O[C@H](COS(=O)(=O)O)[C@@H](O[C@H]3O[C@H](COS(=O)(=O)O)[C@@H](OS(=O)(=O)O)[C@H](OS(=O)(=O)O)[C@H]3OS(=O)(=O)O)[C@H](OS(=O)(=O)O)[C@H]2OS(=O)(=O)O)[C@H](OS(=O)(=O)O)[C@H]1OS(=O)(=O)O (stereo partly drawn) [Maltoheptaose Poly(H-)sulfate Trimethylamine Salt]	+9 Wells	+5 WELLS		+9 WELLS		5 Wells	+4 Wells	+4 WELLS				
O=S(=O)(O)OC[C@H]1O[C@H](O[C@H]2[C@H](OS(=O)(=O)O)[C@@H](OS(=O)(=O)O)[C@@H](O[C@H]3[C@H](OS(=O)(=O)O)[C@@H](OS(=O)(=O)O)[C@@H](O[C@H]4[C@H](OS(=O)(=O)O)[C@@H](OS(=O)(=O)O)C(OS(=O)(=O)O)O[C@@H]4COS(=O)(=O)O)O[C@@H]3COS(=O)(=O)O)O[C@@H]2COS(=O)(=O)O)[C@H](OS(=O)(=O)O)[C@@H](OS(=O)(=O)O)[C@@H]1O[C@H]1O[C@H](COS(=O)(=O)O)[C@@H](O[C@H]2O[C@H](COS(=O)(=O)O)[C@@H](O[C@H]3O[C@H](COS(=O)(=O)O)[C@@H](OS(=O)(=O)O)[C@H](OS(=O)(=O)O)[C@H]3OS(=O)(=O)O)[C@H](OS(=O)(=O)O)[C@H]2OS(=O)(=O)O)[C@H](OS(=O)(=O)O)[C@H]1OS(=O)(=O)O (stereo partly drawn) [Maltoheptaose Poly(H-)sulfate Sodium Salt]												6 Wells and 5 Wells
Maltotriose Poly(H-)sulfate Trimethylamine Salt	+7 Wells	+8 WELLS	256	+7 WELLS	Neg.	Neg.	-1 Wells	-1 WELLS				
